The results in this text go back to ChEMBL document CHEMBL1152404, “Structure-Activity Relationship of novel phenylacetic CXCR1 inhibitors” (Bioorg Med Chem Lett, 2009).

SMILES strings stand for the structures. A value given as a limit tells only on which side of the number the result lay.

Data set [1] in a line: Cytotoxicity against mouse L1.2 cells assessed as cell viability by trypan blue dye exclusion assay. In kind it is cell-based. Further details: concentration or dose not given beside the values. The note with it: read-out: Activity.
Data set [2] can be described thus: Cytotoxicity against of human polymorphonuclear leukocytes assessed as cell viability by trypan blue dye exclusion assay. The note with it: read-out: Activity. Further details: concentration or dose not given beside the values.

As to `O=C(O)Cc1ccccc1Nc1c(F)cccc1F`, the viability in data set [1] and in data set [2] was above 95% in each case.

Turning to `O=C(O)Cc1ccccc1Oc1ccccc1`, the viability in data set [1] and in data set [2] was above 95% throughout.

With `O=C(O)Cc1ccccc1Oc1ccccc1F`, the viability in data set [1] and in data set [2] was above 95% each time.

With `O=C(O)Cc1ccccc1Oc1ccccc1Cl`, the viability in data set [1] and in data set [2] was above 95% each time.

`O=C(O)Cc1ccccc1Nc1ccccc1F`: the viability in data set [1] and in data set [2] was above 95% throughout.

On to `Cc1ccc(Cl)c(Nc2ccccc2CC(=O)O)c1Cl`, for which the viability in data set [1] and in data set [2] was above 95% throughout.

As for `CS(=O)(=O)NC(=O)Cc1ccccc1Oc1ccccc1F`, the viability in data set [1] and in data set [2] was above 95% each time.

`CC(C(=O)NS(C)(=O)=O)c1ccccc1Nc1c(Cl)cccc1Cl` (configuration not stated): the viability in data set [1] and in data set [2] was above 95% in each case.

Regarding `CC(C(=O)NC(C)(C)C)c1ccccc1Nc1c(Cl)cccc1Cl` (configuration not stated), the viability in data set [1] and in data set [2] was above 95% in each case.

Turning to `CC(C(=O)NCCO)c1ccccc1Nc1c(Cl)cccc1Cl` (configuration not stated), the viability in data set [1] and in data set [2] was above 95% throughout.

On to `Cc1ccccc1Nc1ccccc1CC(=O)O`, for which the viability in data set [1] and in data set [2] was above 95% throughout.

For `CC(C(N)=O)c1ccccc1Nc1c(Cl)cccc1Cl` (configuration not stated), the viability in data set [1] and in data set [2] was above 95% in each case.

Take `CC(C(=O)NCCC[N+](C)(C)C)c1ccccc1Nc1c(Cl)cccc1Cl` (configuration not stated): the viability in data set [1] and in data set [2] was above 95% in each case.

With `Cc1cccc(C)c1NC(=O)C(C)c1ccccc1Nc1c(Cl)cccc1Cl` (configuration not stated), the viability in data set [1] and in data set [2] was above 95% in each case.

On to `O=C(O)Cc1cccc(C(=O)c2ccccc2)c1`, for which the viability in data set [1] and in data set [2] was above 95% each time.

As for `O=C(O)Cc1ccccc1Cc1c(Cl)cccc1Cl`, the viability in data set [1] and in data set [2] was above 95% throughout.

Turning to `CC(C(=O)NCCCN(C)C)c1ccccc1Nc1c(Cl)cccc1Cl` (configuration not stated), the viability in data set [1] and in data set [2] was above 95% throughout.

For the molecule `CC(C(=O)O)c1ccccc1Nc1c(Cl)cccc1Cl` (configuration not stated), the viability in data set [1] and in data set [2] was above 95% in each case.

In the case of `O=C(O)Cc1ccccc1Nc1ccccc1Cl`, the viability in data set [1] and in data set [2] was above 95% each time.

As for `O=C(O)Cc1ccccc1Nc1cc(Cl)ccc1Cl`, the viability in data set [1] and in data set [2] was above 95% each time.

On to `O=C(O)Cc1ccccc1Nc1ccccc1`, for which the viability in data set [1] and in data set [2] was above 95% in each case.

On to `CC(C)Cc1ccc([C@@H](C)C(=O)O)cc1` [(R)-IBUPROPHEN], for which the viability in data set [1] and in data set [2] was above 95% throughout.

With `O=C(O)Cc1ccccc1Nc1c(Cl)cccc1Cl` [DICLOFENAC], the viability in data set [1] and in data set [2] was above 95% in each case.

Consider `CC(C)Cc1ccc(CC(=O)O)cc1` [IBUFENAC], for which the viability in data set [1] and in data set [2] was above 95% in each case.

Consider `COc1ccc2c(c1)c(CC(=O)O)c(C)n2C(=O)c1ccc(Cl)cc1` [INDOMETHACIN], for which the viability in data set [1] and in data set [2] was above 95% each time.

`Cc1ccc(C(=O)c2ccc(CC(=O)O)n2C)cc1` [TOLMETIN]: the viability in data set [1] and in data set [2] was above 95% in each case.
